Patent US5770590A, “Cyclic compounds, their prudiction and use” (Takeda Chemical Industries, Ltd., priority 1995, dated 1998)

What was measured:
[1] = system: plasma extravasation induced by capsaicin in trachea; assay: Inhibitory effect on plasma extravasation induced by capsaicin in trachea of guinea pigs; assay type: in vivo, guinea pigs (Hartley type white male); details: Table 3, Dunnett's test *p < 0.05, **p < 0.01, ***p < 0.001
Description: [Inhibitory effect on plasma extravasation induced by capsaicin in trachea of guinea pigs] Guinea pigs (Hartley type white male guinea pige), (n=6) were anesthetized with 35 mg/kg of pentobarbital injected intraperitoneally (i.p.), then test compounds were administered intravenously (i.v.). After 5 minutes, a mixed solution of capsaicin (150 μg/kg) and Evans' blue dye (20 mg/kg) was administered intravenously to cause reaction. Ten minutes later, test animals were sacrificed by cutting the aorta, then perfused through pulmonary artery with 50 ml of physiological saline. The trachea was excised, and its wet weight was measure. The trachea was incubated at room temperature in 1 ml of acetone-0.3% sodium sulfate (7:3) overnight and Evans' blue dye was extracted from the trachea. The extract solution was centrifuged at 2800 rpm for 5 minutes. The amount of Evans' blue dye in the supernatant was quantified by measuring absorbance at […]. Plasma extravasation was expressed in terms of the amount of Evans' blue dye (μg) relative to the weight of the trachea (g). The efficacy of the drug was evaluated by calculating the % inhibition in accordance with the following formula, or expressed in terms of [formula] A: the amount of Evan's blue dye (μg/g) in each test animal B: The mean amount of Evan's blue dye (μg/g) of the group untreated with capsaicin.

[2] = target: T1, substance P receptor (receptor from human lymphoblast cells (IM-9)) (Homo sapiens, UniProt P25103); assay: Radioligand receptor binding inhibitory activity using receptor from human lymphoblast cells (IM-9), 125I-BHSP; details: Table 1, IM-9 receptor, 25° C., 30 minutes
T1 construct: The receptor was prepared from human lymphoblast cells (IM-9); endogenous in cells; host or cells: IM-9 human lymphoblast cells (crude membranes)
T1 sequence (P25103 whole entry): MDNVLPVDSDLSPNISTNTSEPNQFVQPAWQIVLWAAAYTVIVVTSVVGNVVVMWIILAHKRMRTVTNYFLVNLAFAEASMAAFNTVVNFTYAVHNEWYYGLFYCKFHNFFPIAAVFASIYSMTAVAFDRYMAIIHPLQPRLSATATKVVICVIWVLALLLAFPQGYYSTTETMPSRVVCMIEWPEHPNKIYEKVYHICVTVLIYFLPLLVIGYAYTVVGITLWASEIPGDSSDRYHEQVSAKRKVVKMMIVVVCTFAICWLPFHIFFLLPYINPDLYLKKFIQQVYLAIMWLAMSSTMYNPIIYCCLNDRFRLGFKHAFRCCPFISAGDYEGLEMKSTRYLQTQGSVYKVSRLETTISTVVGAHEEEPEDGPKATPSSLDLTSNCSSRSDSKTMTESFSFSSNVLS
Description: The receptor was prepared from human lymphoblast cells (IM-9). IM-9 cells (2×10^5 cells/ml) were inoculated and incubated for 3 days (one liter), which was then subjected to centrifuge for 5 minutes at 500×g to obtain cell pellets.
After washing three times with 250 ul of 50 mM of Tris-HCl buffer (pH 7.4) containing 0.02% bovine serum albumin, the radioactivity remaining on the filter was determined with a gamma counter. Before use, the filter was immersed in 0.1% polyethyleneimine for 24 hours and air-dried.

Compound	Inhibition of plasma extravasation ([1]; dose 10 μg/kg i.v.) [%]	Inhibition of plasma extravasation ([1]; dose 100 μg/kg i.v.) [%]	also measured
CC1CCn2c(c(-c3ccccc3)c3cccnc3c2=O)C(=O)N(Cc2cc(C(F)(F)F)cc(C(F)(F)F)c2)C1 (racemic) [Example 15, (+/-)-7-[3,5-Bis(trifluoromethyl)benzyl]-6,7,8,9,10,11-hexahydro-9-methyl-6,13-dioxo-5-phenyl-13H-[1,4]diazocino[2,1-g][1,7]naphthyridine]	68.4	–	–
Cc1ccc(-c2c3n(c(=O)c4ncccc24)CCC(C)CN(Cc2cc(C(F)(F)F)cc(C(F)(F)F)c2)C3=O)cc1 (racemic) [Example 16, (+/-)-7-[3,5-Bis(trifluoromethyl)benzyl]-6,7,8,9,10,11-hexahydro-9-methyl-5-(4-methylphenyl)-6,13-dioxo-13H-[1,4]diazocino[2,1-g][1,7]naphthyridine]	60.5	–	–
Cc1ccc(-c2c3n(c(=O)c4ncccc24)C[C@@H](C)CN(Cc2cc(C(F)(F)F)cc(C(F)(F)F)c2)C3=O)cc1 [Example 14, (9S)-7-[3,5-Bis(trifluoromethyl)benzyl]-6,7,8,9,10,12-hexahydro-9-methyl-5-(4-methylphenyl)-6,12-dioxo[1,4]diazepino[2,1-g][1,7]naphthyridine]	–	–	IC50 [2]: 0.28 nM
O=C1c2c(-c3ccccc3)ccnc2OCCCN1Cc1cc(C(F)(F)F)cc(C(F)(F)F)c1 [Example 22, 5-[3,5-Bis(trifluoromethyl)benzyl]-2,3,4,5-tetrahydro-6-oxo-7-phenyl-6H-pyrido[2,3-b][1,5]oxazocine]	–	41.2	–
Cc1cnc2c(c1-c1ccccc1)C(=O)N(Cc1cc(C(F)(F)F)cc(C(F)(F)F)c1)CCO2 [Example 23, 4-[3,5-Bis(trifluoromethyl)benzyl]-2,3,4,5-tetrahydro-7-methyl-5-oxo-6-phenylpyrido[3,2-f][1,4]oxazepine]	–	64.0	–
Cc1cnc2c(c1-c1ccccc1)C(=O)N(Cc1cc(C(F)(F)F)cc(C(F)(F)F)c1)CCCO2 [Example 24, 5-[3,5-Bis(trifluoromethyl)benzyl]-2,3,4,5-tetrahydro-8-methyl-6-oxo-7-phenyl-6H-pyrido[2,3-b][1,5]oxazocine]	–	53.1	–
